From publication PMC11585928, “Screening the Global Health Priority Box against Plasmodium berghei liver stage parasites using an inexpensive luciferase detection protocol” (Malaria Journal, 2024)

Tests used:
[1] = test system: luciferase-expressing P. berghei liver stage schizonts; assay: P. berghei liver stage dose-response assay in HepG2, FLAR luciferase endpoint (legacy anti-malarials); format: cell-based; conditions: Plasmodium berghei, HepG2, 44 h, read-out: FLAR (pEC50 ± SD) (converted)
Method: All stock reagents were stored at 4 °C, except D-luciferin, ATP, and DTT which were aliquoted and stored at − 20 °C. Tricine, MgSO4, and MgCO3 stocks were all adjusted to have a pH of 7.8.
To test the titration of sporozoite in dose–response format with MMV390048, 20 µL of a 25 sporozoite/μL solution in HepG2 media was added to columns 1–8 of 384-well plates (inoculum of 500 sporozoites/well), 20 μL of 50 sporozoites/μL was added into columns 9–16 (inoculum of 1000 sporozoites/well), and 20 μL of 100 sporozoites/μL was added into columns 17–24 (inoculum of 2000 sporozoites/well). To test legacy anti-malarials, two independent experiments were performed for each endpoint (FLAR or HCI), each with an independent production run of P. berghei sporozoites. […] Infected plates were spun for 5 min at 200 RCF and kept for 3 h at 37 °C and 5% CO2 prior to compound treatment.
(§1) Compound treatment was performed as previously described. Dose–response source plates containing 5 μL of 1000 × test compounds in a serial dilution in DMSO were prepared in low volume 384-well plates using a Biomek 4000 (Beckman Coulter). Assay plates were treated by transferring 40 nL from screening or dose–response source plates using a pin tool (V&P Scientific) affixed to a Biomek NXp, resulting in a final test concentration of 1 × in media.
After 44 h, dose–response plates designated for the FLAR endpoint underwent the freeze/thaw lysis method before detection with 1 × FLAR completed with 1 × D-luciferin and ATP endpoint described above. […] Following fixation, the plate was washed twice by adding and then dumping 20 µL of PBS/well. […] Plates were imaged on an ImageXpress Micro Confocal high content system (Molecular Devices). Raw values (either parasite growth area for HCI or Relative Light Units (RLU) for FLAR) were normalized to the positive (MMV390048) or negative (DMSO) controls using the equation: %Inhibition=100×RawData-AverageNegativeControl/AveragePositiveControl-AverageNegativeControl and curve fitting was performed with CDD Vault using the Levenberg–Marquardt algorithm. Potency data from all plates were collected, visualized, and analysed using GraphPad Prism (Version 10.0.3). Potency values for legacy anti-malarials obtained from our FLAR endpoint were compared to those previously reported from a 1536-well plate format using a Bright-Glo™ luciferase detection protocol.

[2] = test system: P. berghei liver stage schizonts; assay: microbe, parasite or virus in culture; format: cell-based; conditions: Plasmodium berghei, HepG2, 44 h, read-out: High Content Imaging (pEC50 ± SD) (converted)
Method: HepG2 seeding (1.75 × 10^4 cells/well), salivary gland dissection, sporozoite quantification, and sporozoite dilution were performed as described above. To test the titration of sporozoite in dose–response format with MMV390048, 20 µL of a 25 sporozoite/μL solution in HepG2 media was added to columns 1–8 of 384-well plates (inoculum of 500 sporozoites/well), 20 μL of 50 sporozoites/μL was added into columns 9–16 (inoculum of 1000 sporozoites/well), and 20 μL of 100 sporozoites/μL was added into columns 17–24 (inoculum of 2000 sporozoites/well). To test legacy anti-malarials, two independent experiments were performed for each endpoint (FLAR or HCI), each with an independent production run of P. berghei sporozoites. […] Infected plates were spun for 5 min at 200 RCF and kept for 3 h at 37 °C and 5% CO2 prior to compound treatment.
as §1
After 44 h, dose–response plates designated for the FLAR endpoint underwent the freeze/thaw lysis method before detection with 1 × FLAR completed with 1 × D-luciferin and ATP endpoint described above. Plates designated for the HCI endpoint were fixed with 4% paraformaldehyde (Thermo Scientific, cat 043368.9 M) in PBS for 20 min. Following fixation, the plate was washed twice by adding and then dumping 20 µL of PBS/well. Plates were then stained with 50 ng/mL of mouse anti-Plasmodium glyceraldehyde 3-phosphate dehydrogenase (GAPDH) (European Malaria Reagent Repository, cat 13.3) diluted in a 0.3% Triton X and 1% BSA permeabilization and blocking stain buffer overnight at 4 °C. Following three washes with PBS, plates were stained with 2 µg/mL of goat anti-mouse AlexaFluor 488 (Invitrogen, cat A11001) diluted in stain buffer and again incubated overnight at 4 °C. Following three washes with PBS, plates were counterstained with 10 µg/mL Hoechst 33342 (Invitrogen, cat H21492) for 30 min before two washes. Plates were imaged on an ImageXpress Micro Confocal high content system (Molecular Devices). Raw values (either parasite growth area for HCI or Relative Light Units (RLU) for FLAR) were normalized to the positive (MMV390048) or negative (DMSO) controls using the equation: %Inhibition=100×RawData-AverageNegativeControl/AveragePositiveControl-AverageNegativeControl and curve fitting was performed with CDD Vault using the Levenberg–Marquardt algorithm. Potency data from all plates were collected, visualized, and analysed using GraphPad Prism (Version 10.0.3). Potency values for legacy anti-malarials obtained from our FLAR endpoint were compared to those previously reported from a 1536-well plate format using a Bright-Glo™ luciferase detection protocol.

HepG2 cells = assay: HepG2 cytotoxicity assay in galactose media, 72 h, hepatic nuclei count by HCI; format: cell-based, Homo sapiens
Method: To assess the general cytotoxicity of GHPB compounds, HepG2 cells were cultured in media containing galactose instead of glucose to avoid false negatives due to the Crabtree effect. Following propagation of HepG2 in T-75 flasks with glucose-containing media as above, media was aspirated, the cell monolayer was washed with PBS, and then cells were trypsinized as above. Released cells were then resuspended in media containing glucose-free DMEM (Gibco, cat 11,966–025) supplemented with 10% FBS (Corning, cat 35–016-CV), 10 mM galactose (Sigma, cat G5388), 1 mM sodium pyruvate (Corning, cat 25–000-CI), 1 × penicillin–streptomycin-neomycin mix (Gibco, cat 15,640–055), and 2 mM L-glutamine (Gibco, cat 25,030–081). The cell density was calculated using trypan blue exclusion on a haemocytometer, diluted to 50 cells/µL, and 40 µL of cells were seeded into collagen-coated 384-well plates (Greiner Bio-One, cat 781,956) using a Biomek NXp (Beckman Coulter), resulting in 2 × 10^3 cells/well. The day after seeding, plates were treated with a pin tool as above and cultured for 72 h. Plates were then fixed with 4% paraformaldehyde, stained with 10 µg/mL Hoechst 33,342, and imaged on an ImageXpress Micro Confocal. Hepatic nuclei were quantified using MetaXpress (Molecular Devices) image analysis software. Both P. berghei liver schizont and HepG2 cytotoxicity data were loaded into CDD Vault for normalization and hit selection as described above. A total of 35 compounds were identified for resupply of fresh powder for confirmation in dose–response assays. […] Powders were diluted to 50 mM in DMSO and plated in 1000 × source plates as described above. […] Separately, two independent runs of the HepG2 cultured in galactose, assayed as described above, were used to assess the cytotoxicity potency and selectivity indices for these compounds. […] Receiver-operator characteristic (ROC) curves were generated using Graphpad Prism and area under the curve (AUC) was calculated using the Wilson/Brown method for both P. berghei liver schizont activity and HepG2 cytotoxicity.

[3] = test system: P. berghei liver schizonts; assay: GHPB dose-response confirmation, FLAR luciferase endpoint; format: cell-based, Plasmodium berghei; conditions: grouped as selectively active, active but with low selectivity, nonselective or inactive
Method: A total of 35 compounds were identified for resupply of fresh powder for confirmation in dose–response assays. […] Powders were diluted to 50 mM in DMSO and plated in 1000 × source plates as described above. MMV390048 and puromycin were plated as the positive control for P. berghei liver schizont activity and cytotoxicity, respectively. Two independent experiments using 1 × FLAR and 5 × 10^3 cells/well were performed to assess the potency of these compounds against P. berghei liver schizonts, each with an independent production run of P. berghei sporozoites. […] Separately, two independent runs of the HepG2 cultured in galactose, assayed as described above, were used to assess the cytotoxicity potency and selectivity indices for these compounds. Both P. berghei liver schizont and HepG2 cytotoxicity data were loaded into CDD Vault for normalization, curve fitting, and EC50 calculations as described above. Receiver-operator characteristic (ROC) curves were generated using Graphpad Prism and area under the curve (AUC) was calculated using the Wilson/Brown method for both P. berghei liver schizont activity and HepG2 cytotoxicity.

[4] = test system: P. berghei liver schizonts; assay: GHPB single point primary screen, FLAR luciferase endpoint; format: cell-based, Plasmodium berghei; conditions: 1 µM; hit = > 80% inhibition of P. berghei and < 15% inhibition of HepG2
Method: The GHPB is an open-access collection of compounds (80 for vector control, 80 for zoonotic and neglected diseases, 80 for drug resistant malaria) obtained from MMV. The library was supplied in a 96-well microtitre plate and moved into a low-volume 384-well plate (Greiner Bio-One, cat 784,261) using a Biomek NXp to transfer 5 μL of 1 mM compound into the destination wells. MMV390048 (1 µM) was used for the positive control wells and DMSO (0.1% v/v) was used for the negative control wells. The GHPB was screened by seeding 5 × 10^3 cells/well which, after 24 h, were infected with a maximum available inoculum of 1.44 × 10^3 sporozoites/well. Three hours post-infection, plates were treated with a pin tool as described above. After 44 h, media was dumped from the plate, lysed using the freeze/thaw method, and luciferase signal was detected with 1 × FLAR as described above.

| SMILES | EC50 [1] [µM] | EC50 [2] [µM] | HepG2 Cytotoxicity (pEC50 ± SD) (HepG2 cells) | Activity (grouping in dose-response confirmation runs) [3] | activity and selectivity in the primary screens [4] |
| --- | --- | --- | --- | --- | --- |
| CCN(CC)CCCC(C)Nc1ccnc2cc(Cl)ccc12 (centres unmarked) [Chloroquine] | > 10 | > 10 |  |  |  |
| C[C@H]1Cc2c([nH]c3cc(Cl)c(F)cc23)[C@@]2(N1)C(=O)Nc1ccc(Cl)cc12 [Cipargamin] | 0.0102 | 0.00955 |  |  |  |
| COc1cc(C)c2c(Oc3cccc(C(F)(F)F)c3)c(OC)cc(NC(C)CCCN)c2n1 (centres unmarked) [Tafenoquine] | > 1.58 | > 3.39 |  |  |  |
| COc1ncnc(NS(=O)(=O)c2ccc(N)cc2)c1OC [Sulfadoxine] | > 10 | > 10 |  |  |  |
| COc1cc(Cc2cnc(N)nc2N)cc(OC)c1OC [Trimethoprim] | 1.29 | 1.74 |  |  |  |
| O=C(Nc1ncccc1O)c1ccc(N2CCOCC2)nc1 [MMV1103183] |  |  | 5.03 ± 0.02 | active and selective | active and selective |
| CC[C@H]1OC(=O)[C@H](C)[C@@H](O[C@H]2C[C@@](C)(OC)[C@@H](O)[C@H](C)O2)[C@H](C)[C@@H](O[C@@H]2O[C@H](C)C[C@H](N(C)C)[C@H]2O)[C@](C)(O)C[C@@H](C)CN(C)[C@H](C)[C@@H](O)[C@]1(C)O [Azithromycin] | > 10 | > 10 |  |  |  |
| C[C@@H]1CC[C@H]2[C@@H](C)C(=O)O[C@@H]3O[C@@]4(C)CC[C@@H]1[C@]32OO4 [Artemisinin] | > 50.1 | > 50.1 |  |  |  |
| C[C@H]1[C@H](OC(=O)CCC(=O)O)O[C@@H]2O[C@@]3(C)CC[C@H]4[C@H](C)CC[C@@H]1[C@@]24OO3 [Artesunate] | > 16.6 | > 16.6 |  |  |  |
| CCOc1ccccc1NC(=O)Cn1c(=O)n(Cc2ccccc2)c(=O)c2c(C)c(C(=O)N(C)C)sc21 [MMV006430] |  |  | 4.94 ± 0.06 |  |  |
| CO[C@H]1O[C@@H]2O[C@@]3(C)CC[C@H]4[C@H](C)CC[C@@H]([C@H]1C)[C@@]24OO3 [Artemether] | > 1.07 | > 37.2 |  |  |  |
| Clc1ccc2c(N3CCN(CCCN4CCN(c5ccnc6cc(Cl)ccc56)CC4)CC3)ccnc2c1 [Piperaquine] | > 5.25 | > 5.75 |  |  |  |
| O=C1C(O)=C([C@H]2CC[C@H](c3ccc(Cl)cc3)CC2)C(=O)c2ccccc21 [Atovaquone] | 0.0214 | 0.017 |  |  |  |
| CN(C)c1ccc2nc3ccc(=[N+](C)C)cc-3sc2c1 [Methylene Blue] | 0.219 | 0.295 |  |  |  |
| CS(=O)(=O)c1ccc(-c2cnc(N)c(-c3ccc(C(F)(F)F)nc3)c2)cc1 [MMV390048] | 0.0646 | 0.0631 |  |  |  |
| C[C@H]1[C@@H](O)O[C@@H]2O[C@@]3(C)CC[C@H]4[C@H](C)CC[C@@H]1[C@@]24OO3 [Artenimol (DHA), dihydroartemisinin] | > 10 | > 10 |  |  |  |
| CC(C)(N)CNC(=O)C[C@H]1CC[C@]2(CC1)OO[C@]1(O2)C2CC3CC(C2)CC1C3 [Arterolane (OZ277), Arterolane] | > 10 | > 3.02 |  |  |  |
| COc1cc(NC(C)CCCN)c2ncccc2c1 (centres unmarked) [Primaquine] | > 5.37 | > 10 |  |  |  |
| c1cc([C@H]2CC[C@]3(CC2)OO[C@]2(O3)C3CC4CC(C3)CC2C4)ccc1OCCN1CCOCC1 [Artefenomel (OZ439), Artefenomel] | > 28.8 | > 1.23 |  |  |  |
| CCc1nc(N)nc(N)c1-c1ccc(Cl)cc1 [Pyrimethamine] | 0.0339 | 0.0195 |  |  |  |
| CCCCN(CCCC)CC(O)c1cc(Cl)cc2c1-c1ccc(Cl)cc1/C2=C/c1ccc(Cl)cc1 (centres unmarked) [Lumefantrine] | > 5.75 | > 5.75 |  |  |  |
| Cc1cc(Nc2ccc(S(F)(F)(F)(F)F)cc2)n2nc(C(C)(F)F)nc2n1 [DSM265] | 0.0166 | 0.0112 |  |  |  |
